Results: ChEMBL document CHEMBL5352492, “Application of deep generative model for design of Pyrrolo[2,3-d] pyrimidine derivatives as new selective TANK binding kinase 1 (TBK1) inhibitors” (Eur J Med Chem, 2023)

Tests used:
[1] = target: T1, Serine/threonine-protein kinase TBK1 (Homo sapiens) (UniProt Q9UHD2); test: Inhibition of TBK1 (unknown origin) incubated at 1000 nM for 1 hr in presence of ATP by FRET based Z'-Lyte assay relative to control
T1 sequence (whole entry): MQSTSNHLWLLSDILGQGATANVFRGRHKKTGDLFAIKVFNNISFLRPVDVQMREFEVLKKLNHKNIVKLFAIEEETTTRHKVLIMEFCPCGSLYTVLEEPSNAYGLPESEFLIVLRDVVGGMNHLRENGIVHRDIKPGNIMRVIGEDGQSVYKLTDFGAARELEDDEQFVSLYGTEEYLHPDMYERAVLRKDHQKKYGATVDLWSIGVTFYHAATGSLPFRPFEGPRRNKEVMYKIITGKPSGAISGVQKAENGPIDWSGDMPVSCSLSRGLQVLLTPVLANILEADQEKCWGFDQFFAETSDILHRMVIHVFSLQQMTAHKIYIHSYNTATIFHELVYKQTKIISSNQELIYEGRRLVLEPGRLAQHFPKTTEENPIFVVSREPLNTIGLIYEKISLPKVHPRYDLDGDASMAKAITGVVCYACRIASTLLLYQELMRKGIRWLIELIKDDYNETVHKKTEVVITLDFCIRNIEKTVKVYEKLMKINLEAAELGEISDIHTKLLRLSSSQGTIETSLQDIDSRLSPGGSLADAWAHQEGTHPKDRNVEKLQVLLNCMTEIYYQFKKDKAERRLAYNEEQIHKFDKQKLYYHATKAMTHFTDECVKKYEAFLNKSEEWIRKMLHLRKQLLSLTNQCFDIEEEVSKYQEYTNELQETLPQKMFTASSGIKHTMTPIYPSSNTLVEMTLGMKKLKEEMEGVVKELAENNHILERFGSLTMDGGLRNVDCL

[2] = target: T1, Serine/threonine-protein kinase TBK1 (Homo sapiens); test: Inhibition of TBK1 (unknown origin) incubated at 100 nM for 1 hr in presence of ATP by FRET based Z'-Lyte assay relative to control
[3] = target: T1, Serine/threonine-protein kinase TBK1 (Homo sapiens); test: Inhibition of TBK1 (unknown origin) incubated at 10 nM for 1 hr in presence of ATP by FRET based Z'-Lyte assay relative to control
[4] = target: T2, Serine/threonine-protein kinase TBK1 (Homo sapiens, UniProt Q9UHD2); test: Inhibition of TBK1 (unknown origin) incubated for 1 hr in presence of ATP by FRET based Z'-Lyte assay
T2 sequence (Q9UHD2 whole entry): T1 sequence (whole entry)

[5] = target: T2, Serine/threonine-protein kinase TBK1; test: Inhibition of TBK1 in human THP1-Blue ISG cells by measuring SEAP gene expression incubated for 24 hrs by reporter gene assay; assay type: cell-based
THP1-Blue ISG [6] = test: Inhibition of LPS-induced ifn-beta in human THP1-Blue ISG cells treated for 2 hrs RTq-PCR analysis; assay type: functional, cell-based; details: dose 0.1-1 µM
THP1-Blue ISG [7] = test: Inhibition of LPS-induced cxcl10 in human THP1-Blue ISG cells treated for 2 hrs RTq-PCR analysis; assay type: functional, cell-based; details: dose 0.1-1 µM
RAW264.7 [8] = test: Inhibition of LPS-induced ifn-beta in mouse RAW264.7 cells treated for 2 hrs RTq-PCR analysis; assay type: functional, cell-based; details: dose 0.1-1 µM
RAW264.7 [9] = test: Inhibition of LPS-induced cxcl10 in mouse RAW264.7 cells treated for 2 hrs RTq-PCR analysis; assay type: functional, cell-based; details: dose 0.1-1 µM
A549 = test: Antiproliferative activity against human A549 cells measured after 72 hrs by SRB staining method; assay type: functional, cell-based; details: A549, 72 h
[10] = Antiproliferative activity against LLC cells measured after 72 hrs by SRB staining method; assay type: functional, cell-based; details: Mus musculus, Lewis lung carcinoma
[11] = target: T1, Serine/threonine-protein kinase TBK1 (Homo sapiens); test: Inhibition of TBK1 phosphorylation (unknown origin) of downstream signalling effector protein S6K at 1 to 20 uM after 24 hrs by Western blotting analysis; details: dose 1-20 µM
[12] = target: Proto-oncogene tyrosine-protein kinase receptor Ret (Homo sapiens) (UniProt P07949); test: Inhibition of RET (unknown origin) at 100 to 1000 nM relative to control; details: dose 100-1000 nM
[13] = target: Receptor tyrosine-protein kinase erbB-4 (Homo sapiens) (UniProt Q15303); test: Inhibition of ErbB4 (unknown origin) at 100 to 1000 nM relative to control; details: dose 100-1000 nM
[14] = target: Mast/stem cell growth factor receptor Kit (Homo sapiens) (UniProt P10721); test: Inhibition of KIT (unknown origin) at 100 to 1000 nM relative to control; details: dose 100-1000 nM
[15] = target: Fibroblast growth factor receptor 3 (Homo sapiens) (UniProt P22607); test: Inhibition of FGFR3 (unknown origin) at 100 to 1000 nM relative to control; details: dose 100-1000 nM
[16] = target: Macrophage-stimulating protein receptor (Homo sapiens) (UniProt Q04912); test: Inhibition of RON (unknown origin) at 100 to 1000 nM relative to control; details: dose 100-1000 nM
[17] = target: Fibroblast growth factor receptor 2 (Homo sapiens) (UniProt P21802); test: Inhibition of FGFR2 (unknown origin) at 100 to 1000 nM relative to control; details: dose 100-1000 nM
[18] = target: Macrophage colony-stimulating factor 1 receptor (Homo sapiens) (UniProt P07333); test: Inhibition of CSF1R (unknown origin) at 100 to 1000 nM relative to control; details: dose 100-1000 nM
[19] = target: Fibroblast growth factor receptor 1 (Homo sapiens) (UniProt P11362); test: Inhibition of FGFR1 (unknown origin) at 100 to 1000 nM relative to control; details: dose 100-1000 nM
[20] = target: Ephrin type-B receptor 2 (Homo sapiens) (UniProt P29323); test: Inhibition of EPH-B2 (unknown origin) at 100 to 1000 nM relative to control; details: dose 100-1000 nM
[21] = target: Tyrosine-protein kinase BTK (Homo sapiens) (UniProt Q06187); test: Inhibition of BTK (unknown origin) at 100 to 1000 nM relative to control; details: dose 100-1000 nM
[22] = target: Vascular endothelial growth factor receptor 2 (Homo sapiens) (UniProt P35968); test: Inhibition of VEGFR2 (unknown origin) at 100 to 1000 nM relative to control; details: dose 100-1000 nM
[23] = target: Platelet-derived growth factor receptor alpha (Homo sapiens) (UniProt P16234); test: Inhibition of PDGFR-alpha (unknown origin) at 100 to 1000 nM relative to control; details: dose 100-1000 nM
[24] = target: Ephrin type-A receptor 2 (Homo sapiens) (UniProt P29317); test: Inhibition of EPH-A2 (unknown origin) at 100 to 1000 nM relative to control; details: dose 100-1000 nM
[25] = target: Fibroblast growth factor receptor 4 (Homo sapiens) (UniProt P22455); test: Inhibition of FGFR4 (unknown origin) at 100 to 1000 nM relative to control; details: dose 100-1000 nM
[26] = target: Vascular endothelial growth factor receptor 1 (Homo sapiens) (UniProt P17948); test: Inhibition of VEGFR1 (unknown origin) at 100 to 1000 nM relative to control; details: dose 100-1000 nM
[27] = target: Receptor-type tyrosine-protein kinase FLT3 (Homo sapiens) (UniProt P36888); test: Inhibition of Flt-3 (unknown origin) at 100 to 1000 nM relative to control; details: dose 100-1000 nM
[28] = target: Proto-oncogene tyrosine-protein kinase Src (Homo sapiens) (UniProt P12931); test: Inhibition of Src (unknown origin) at 100 to 1000 nM relative to control; details: dose 100-1000 nM
[29] = target: Activated CDC42 kinase 1 (Homo sapiens) (UniProt Q07912); test: Inhibition of ACK1 (unknown origin) at 100 to 1000 nM relative to control; details: dose 100-1000 nM
[30] = target: Insulin receptor (Homo sapiens) (UniProt P06213); test: Inhibition of IR (unknown origin) at 100 to 1000 nM relative to control; details: dose 100-1000 nM
[31] = target: Tyrosine-protein kinase ITK/TSK (Homo sapiens) (UniProt Q08881); test: Inhibition of ITK (unknown origin) at 100 to 1000 nM relative to control; details: dose 100-1000 nM
[32] = target: Platelet-derived growth factor receptor beta (Homo sapiens) (UniProt P09619); test: Inhibition of PDGFR-beta (unknown origin) at 100 to 1000 nM relative to control; details: dose 100-1000 nM
[33] = target: Vascular endothelial growth factor receptor 3 (Homo sapiens) (UniProt P35916); test: Inhibition of VEGFR3 (unknown origin) at 100 to 1000 nM relative to control; details: dose 100-1000 nM
[34] = target: Tyrosine-protein kinase ABL1 (Homo sapiens) (UniProt P00519); test: Inhibition of Abl (unknown origin) at 100 to 1000 nM relative to control; details: dose 100-1000 nM
[35] = target: Focal adhesion kinase 1 (Homo sapiens) (UniProt Q05397); test: Inhibition of FAK (unknown origin) at 100 to 1000 nM relative to control; details: dose 100-1000 nM
[36] = target: Receptor tyrosine-protein kinase erbB-2 (Homo sapiens) (UniProt P04626); test: Inhibition of ErbB2 (unknown origin) at 100 to 1000 nM relative to control; details: dose 100-1000 nM
[37] = target: Epidermal growth factor receptor (Homo sapiens) (UniProt P00533); test: Inhibition of EGFR (unknown origin) at 100 to 1000 nM relative to control; details: dose 100-1000 nM
[38] = target: Insulin-like growth factor 1 receptor (Homo sapiens) (UniProt P08069); test: Inhibition of IGF1R (unknown origin) at 100 to 1000 nM relative to control; details: dose 100-1000 nM

Sequence of Tyrosine-protein kinase BTK (Homo sapiens) (Q06187 whole entry): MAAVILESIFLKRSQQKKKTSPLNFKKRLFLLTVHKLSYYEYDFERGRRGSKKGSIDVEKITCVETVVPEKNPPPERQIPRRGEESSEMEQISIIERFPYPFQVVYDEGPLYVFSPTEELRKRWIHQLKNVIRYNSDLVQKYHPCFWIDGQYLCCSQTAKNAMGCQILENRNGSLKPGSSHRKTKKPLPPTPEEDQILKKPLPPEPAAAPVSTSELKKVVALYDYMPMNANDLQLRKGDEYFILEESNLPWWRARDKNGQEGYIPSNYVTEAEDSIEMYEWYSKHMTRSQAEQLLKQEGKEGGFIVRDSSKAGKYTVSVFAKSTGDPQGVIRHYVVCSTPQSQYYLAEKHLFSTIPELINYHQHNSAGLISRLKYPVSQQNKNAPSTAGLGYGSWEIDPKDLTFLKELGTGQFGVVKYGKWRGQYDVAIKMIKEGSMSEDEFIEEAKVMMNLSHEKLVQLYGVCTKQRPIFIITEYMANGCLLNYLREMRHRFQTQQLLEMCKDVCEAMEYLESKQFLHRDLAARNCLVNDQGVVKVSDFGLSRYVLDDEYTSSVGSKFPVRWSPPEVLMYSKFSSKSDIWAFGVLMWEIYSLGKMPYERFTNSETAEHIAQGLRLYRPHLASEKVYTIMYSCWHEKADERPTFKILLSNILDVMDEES
Sequence of Receptor-type tyrosine-protein kinase FLT3 (Homo sapiens) (P36888 whole entry): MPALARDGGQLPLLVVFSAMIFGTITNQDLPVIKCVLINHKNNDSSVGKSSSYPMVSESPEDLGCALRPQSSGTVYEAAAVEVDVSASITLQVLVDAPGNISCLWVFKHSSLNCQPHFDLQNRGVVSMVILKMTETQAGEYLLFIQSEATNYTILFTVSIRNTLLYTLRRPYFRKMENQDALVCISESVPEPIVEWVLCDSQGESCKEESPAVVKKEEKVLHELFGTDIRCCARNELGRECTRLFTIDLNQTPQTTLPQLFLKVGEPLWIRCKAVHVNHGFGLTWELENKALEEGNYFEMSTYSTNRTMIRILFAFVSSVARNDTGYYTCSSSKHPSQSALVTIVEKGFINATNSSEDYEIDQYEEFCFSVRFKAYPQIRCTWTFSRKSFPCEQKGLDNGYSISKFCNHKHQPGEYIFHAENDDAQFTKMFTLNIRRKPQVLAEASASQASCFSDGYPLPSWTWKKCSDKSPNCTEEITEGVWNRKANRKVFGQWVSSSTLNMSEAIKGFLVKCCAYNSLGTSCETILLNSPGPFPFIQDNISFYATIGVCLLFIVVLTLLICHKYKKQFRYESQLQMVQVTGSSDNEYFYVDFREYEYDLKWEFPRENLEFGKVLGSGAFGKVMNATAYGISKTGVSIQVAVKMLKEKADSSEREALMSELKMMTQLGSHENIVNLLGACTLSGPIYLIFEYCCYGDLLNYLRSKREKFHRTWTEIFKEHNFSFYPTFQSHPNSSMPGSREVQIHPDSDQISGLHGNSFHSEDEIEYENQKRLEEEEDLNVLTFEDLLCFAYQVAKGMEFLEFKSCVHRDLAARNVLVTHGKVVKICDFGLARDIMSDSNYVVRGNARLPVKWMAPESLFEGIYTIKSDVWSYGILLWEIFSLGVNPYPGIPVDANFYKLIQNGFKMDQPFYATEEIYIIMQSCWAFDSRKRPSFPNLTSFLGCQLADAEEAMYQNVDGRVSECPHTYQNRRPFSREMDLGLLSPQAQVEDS
Sequence of Fibroblast growth factor receptor 1 (Homo sapiens) (P11362 22-822 limits assumed): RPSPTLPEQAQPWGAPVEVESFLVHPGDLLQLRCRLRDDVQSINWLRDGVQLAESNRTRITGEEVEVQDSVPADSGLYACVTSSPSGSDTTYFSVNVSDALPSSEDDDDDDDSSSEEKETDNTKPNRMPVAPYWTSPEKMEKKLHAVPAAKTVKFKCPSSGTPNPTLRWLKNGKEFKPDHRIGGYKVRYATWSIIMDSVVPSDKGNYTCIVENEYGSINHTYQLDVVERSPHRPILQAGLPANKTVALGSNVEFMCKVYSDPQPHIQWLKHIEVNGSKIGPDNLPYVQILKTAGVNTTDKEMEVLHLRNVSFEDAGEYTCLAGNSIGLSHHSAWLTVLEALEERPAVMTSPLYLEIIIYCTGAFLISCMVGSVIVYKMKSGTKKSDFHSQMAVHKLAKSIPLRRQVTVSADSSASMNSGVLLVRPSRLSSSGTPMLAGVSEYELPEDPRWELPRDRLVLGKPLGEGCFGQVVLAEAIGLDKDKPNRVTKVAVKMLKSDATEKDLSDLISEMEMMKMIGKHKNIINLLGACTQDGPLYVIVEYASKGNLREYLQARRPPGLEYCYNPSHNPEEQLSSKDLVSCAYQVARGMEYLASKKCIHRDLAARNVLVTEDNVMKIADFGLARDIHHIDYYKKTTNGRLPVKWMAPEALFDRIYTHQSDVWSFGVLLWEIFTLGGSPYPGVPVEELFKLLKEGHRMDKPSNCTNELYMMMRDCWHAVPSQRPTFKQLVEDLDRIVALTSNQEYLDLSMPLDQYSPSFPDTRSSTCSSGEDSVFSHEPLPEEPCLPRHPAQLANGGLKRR
Sequence of Fibroblast growth factor receptor 3 (Homo sapiens) (P22607 23-806 limits assumed): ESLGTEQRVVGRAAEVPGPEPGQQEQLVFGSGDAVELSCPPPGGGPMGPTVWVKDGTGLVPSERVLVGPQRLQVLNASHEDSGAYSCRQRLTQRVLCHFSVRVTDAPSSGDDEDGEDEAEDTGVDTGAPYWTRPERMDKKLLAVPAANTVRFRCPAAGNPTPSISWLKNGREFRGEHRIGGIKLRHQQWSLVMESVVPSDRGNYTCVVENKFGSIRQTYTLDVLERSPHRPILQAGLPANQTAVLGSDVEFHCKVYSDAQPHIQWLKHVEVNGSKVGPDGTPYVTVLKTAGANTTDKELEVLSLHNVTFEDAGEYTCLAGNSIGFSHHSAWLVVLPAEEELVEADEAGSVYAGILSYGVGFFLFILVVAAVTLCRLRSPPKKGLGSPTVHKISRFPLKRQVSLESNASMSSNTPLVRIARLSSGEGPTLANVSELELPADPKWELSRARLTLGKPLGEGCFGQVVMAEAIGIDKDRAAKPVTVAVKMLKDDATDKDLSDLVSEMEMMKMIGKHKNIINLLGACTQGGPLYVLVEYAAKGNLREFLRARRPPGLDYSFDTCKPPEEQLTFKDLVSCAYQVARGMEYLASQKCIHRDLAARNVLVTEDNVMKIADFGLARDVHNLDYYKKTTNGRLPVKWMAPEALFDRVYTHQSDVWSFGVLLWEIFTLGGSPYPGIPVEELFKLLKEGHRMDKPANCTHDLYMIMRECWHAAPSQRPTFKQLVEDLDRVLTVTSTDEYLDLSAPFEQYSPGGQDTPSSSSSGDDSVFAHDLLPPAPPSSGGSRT
Sequence of Fibroblast growth factor receptor 4 (Homo sapiens) (P22455 22-802 limits assumed): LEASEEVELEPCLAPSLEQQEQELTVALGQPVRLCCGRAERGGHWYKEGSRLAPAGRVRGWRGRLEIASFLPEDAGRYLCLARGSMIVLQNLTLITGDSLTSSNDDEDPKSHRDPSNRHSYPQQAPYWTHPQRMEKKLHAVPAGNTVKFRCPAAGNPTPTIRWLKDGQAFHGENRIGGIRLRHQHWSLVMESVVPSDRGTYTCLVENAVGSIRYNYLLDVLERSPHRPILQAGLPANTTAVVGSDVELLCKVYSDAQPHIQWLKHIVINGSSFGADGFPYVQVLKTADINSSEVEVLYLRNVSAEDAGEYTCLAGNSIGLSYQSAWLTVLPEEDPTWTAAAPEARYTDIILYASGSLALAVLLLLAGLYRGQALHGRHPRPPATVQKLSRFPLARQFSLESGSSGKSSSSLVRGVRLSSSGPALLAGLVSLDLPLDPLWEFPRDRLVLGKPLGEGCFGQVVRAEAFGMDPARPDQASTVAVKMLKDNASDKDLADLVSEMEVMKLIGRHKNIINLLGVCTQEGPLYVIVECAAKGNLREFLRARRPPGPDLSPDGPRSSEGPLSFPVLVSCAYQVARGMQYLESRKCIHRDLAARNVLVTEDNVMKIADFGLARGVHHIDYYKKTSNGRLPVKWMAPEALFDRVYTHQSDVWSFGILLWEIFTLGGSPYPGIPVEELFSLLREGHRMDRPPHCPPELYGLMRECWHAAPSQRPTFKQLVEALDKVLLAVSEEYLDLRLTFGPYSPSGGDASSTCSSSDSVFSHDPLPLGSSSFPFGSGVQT
Sequence of Mast/stem cell growth factor receptor Kit (Homo sapiens) (P10721 whole entry): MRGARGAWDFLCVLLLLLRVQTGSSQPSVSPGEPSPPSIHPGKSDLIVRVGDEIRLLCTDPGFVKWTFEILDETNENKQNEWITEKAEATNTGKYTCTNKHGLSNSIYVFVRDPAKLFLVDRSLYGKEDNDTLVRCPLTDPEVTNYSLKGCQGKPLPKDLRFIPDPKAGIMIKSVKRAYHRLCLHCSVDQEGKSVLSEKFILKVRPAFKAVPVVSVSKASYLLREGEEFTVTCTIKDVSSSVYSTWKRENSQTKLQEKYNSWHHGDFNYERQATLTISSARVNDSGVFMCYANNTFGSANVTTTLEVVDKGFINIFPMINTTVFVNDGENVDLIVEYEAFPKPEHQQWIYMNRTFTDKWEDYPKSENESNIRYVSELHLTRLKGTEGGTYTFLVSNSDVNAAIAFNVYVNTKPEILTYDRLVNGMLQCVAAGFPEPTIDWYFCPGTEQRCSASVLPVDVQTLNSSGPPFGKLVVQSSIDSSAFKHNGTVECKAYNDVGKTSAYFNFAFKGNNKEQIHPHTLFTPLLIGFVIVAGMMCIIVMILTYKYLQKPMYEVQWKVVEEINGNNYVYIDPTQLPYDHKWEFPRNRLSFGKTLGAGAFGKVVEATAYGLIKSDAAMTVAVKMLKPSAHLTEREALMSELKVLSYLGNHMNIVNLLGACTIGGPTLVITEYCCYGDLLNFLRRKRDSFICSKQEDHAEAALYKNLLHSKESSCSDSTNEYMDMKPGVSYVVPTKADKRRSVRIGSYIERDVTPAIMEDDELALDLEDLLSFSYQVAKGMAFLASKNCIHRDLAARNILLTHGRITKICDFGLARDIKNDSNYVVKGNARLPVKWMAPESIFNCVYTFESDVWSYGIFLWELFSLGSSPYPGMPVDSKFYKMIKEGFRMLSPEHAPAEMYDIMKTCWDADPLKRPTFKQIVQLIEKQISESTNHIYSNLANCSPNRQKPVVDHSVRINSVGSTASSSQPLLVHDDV

## O=C(NCCCN1C(=O)Cc2cnc(Nc3cccc(CN4CCOCC4)c3)nc21)C1CCC1
[1]
  inhibition: 0.6%
[2]
  inhibition: < 0%
[3]
  inhibition: < 0%

## Cc1cn(CCCNC(=O)C2CCC2)c2nc(Nc3cccc(CN4CCOCC4)c3)ncc12
[1]
  inhibition: 78.7%
[2]
  inhibition: 22.8%
[3]
  inhibition: < 0%

## CC(=O)N1CCN(Cc2cccc(Nc3ncc4ccn(CCCNC(=O)C5CCC5)c4n3)c2)CC1
[4]
  IC50: 22.4 nM
[1]
  inhibition: 89%
[2]
  inhibition: 66.2%
[3]
  inhibition: 56.7%
[5]
  IC50: 566 nM
THP1-Blue ISG [6]
  inhibition: Dose-Dependent Effect
THP1-Blue ISG [7]
  inhibition: Dose-Dependent Effect
RAW264.7 [8]
  inhibition: Dose-Dependent Effect
RAW264.7 [9]
  inhibition: Dose-Dependent Effect
A549
  IC50: 17600 nM
[10]
  IC50: 9400 nM
[11]
  inhibition: Dose-Dependent Effect
[12]
  inhibition: < 35%
[13]
  inhibition: < 35%
[14]
  inhibition: < 35%
[15]
  inhibition: < 35%
[16]
  inhibition: < 35%
[17]
  inhibition: < 35%
[18]
  inhibition: < 35%
[19]
  inhibition: < 35%
[20]
  inhibition: < 35%
[21]
  inhibition: < 35%
[22]
  inhibition: < 35%
[23]
  inhibition: < 35%
[24]
  inhibition: < 35%
[25]
  inhibition: < 35%
[26]
  inhibition: < 35%
[27]
  inhibition: < 35%
[28]
  inhibition: < 35%
[29]
  inhibition: < 35%
[30]
  inhibition: < 35%
[31]
  inhibition: < 35%
[32]
  inhibition: < 35%
[33]
  inhibition: < 35%
[34]
  inhibition: < 35%
[35]
  inhibition: < 35%
[36]
  inhibition: < 35%
[37]
  inhibition: < 35%
[38]
  inhibition: < 35%

## O=C(NCCCn1cc(Br)c2cnc(Nc3cccc(CN4CCOCC4)c3)nc21)C1CCC1
[1]
  inhibition: 84.4%
[2]
  inhibition: 37.1%
[3]
  inhibition: 1.33%

## COCCN(C)Cc1cccc(Nc2ncc3ccn(CCCNC(=O)C4CCC4)c3n2)c1
[4]
  IC50: 35.7 nM
[1]
  inhibition: 91.8%
[2]
  inhibition: 68.9%
[3]
  inhibition: 23%

## O=C(NCCCn1ncc2cnc(Nc3cccc(CN4CCOCC4)c3)nc21)C1CCC1
[1]
  inhibition: 29%
[2]
  inhibition: < 0%
[3]
  inhibition: < 0%

## O=C(C1CCC1)N1CCC(n2ccc3cnc(Nc4cccc(CN5CCOCC5)c4)nc32)CC1
[1]
  inhibition: < 0%
[2]
  inhibition: < 0%
[3]
  inhibition: < 0%

## O=C(NCCCn1cnc2cnc(Nc3cccc(CN4CCOCC4)c3)nc21)C1CCC1
[1]
  inhibition: 25.5%
[2]
  inhibition: < 0%
[3]
  inhibition: < 0%

## O=C(NCCCn1ccc2cnc(Nc3cccc(CN4CCN(C5COC5)CC4)c3)nc21)C1CCC1
[4]
  IC50: 50 nM
[1]
  inhibition: 92.3%
[2]
  inhibition: 64%
[3]
  inhibition: 14.7%

## O=C(C1CCC1)N1CCC(n2ccc3cnc(Nc4cccc(CN5CCOCC5)c4)nc32)C1 (stereo not drawn)
[1]
  inhibition: < 0%
[2]
  inhibition: < 0%
[3]
  inhibition: < 0%
